{"source": "paper PMC5844530", "about": "“Fosmetpantotenate (RE-024), a phosphopantothenate replacement therapy for pantothenate kinase-associated neurodegeneration: Mechanism of action and efficacy in nonclinical models” (PLoS ONE, 2018)", "test": "Pharmacokinetics in whole blood, CD-1 mice", "conditions": "CD-1 mice, individual animals; for concentration at 0.083 hr / concentration at 0.333 h / concentration at 0.5 h / concentration at 1 h / concentration at 4 h: male, CD-1, mouse, in vivo, po, Compound 1 Whole Blood Conc.", "note": "Values joined by “and” are separate entries in the source; they are usually repeats but may differ in a detail not shown here. Equal entries are not always repeated.", "data": [{"molecule": "COC(=O)CCNC(=O)[C@@H]1OP(=O)(N[C@@H](C)C(=O)OC)OCC1(C)C", "note": "(some centres unmarked) [Compound 1]", "values": [{"measurement": "Compound 1 Whole Blood Conc.", "setting": "100 mg/kg RE-024-02 by PO, 2 hr, LLOQ 1.6 nM", "result": "BQL"}, {"measurement": "Compound 1 Whole Blood Conc.", "setting": "100 mg/kg RE-024-02 by PO, 4 hr, LLOQ 0.6 ng/mL", "result": "BQL"}, {"measurement": "Compound 1 Whole Blood Conc.", "setting": "100 mg/kg RE-024-02 by PO, 4 hr, LLOQ 1.6 nM", "result": "BQL"}, {"measurement": "Compound 1 Whole Blood Conc.", "setting": "100 mg/kg RE-024-02 by PO, 8 hr, LLOQ 0.6 ng/mL", "result": "BQL"}, {"measurement": "Compound 1 Whole Blood Conc.", "setting": "100 mg/kg RE-024-02 by PO, 8 hr, LLOQ 1.6 nM", "result": "BQL"}, {"measurement": "Compound 1 Whole Blood Conc.", "setting": "300 mg/kg RE-024-02 by PO, 0.033 hr, LLOQ 0.6 ng/mL, 300 mg/kg", "result": "8.7 ng/mL and 70.8 ng/mL and 52.7 ng/mL and 7.2 ng/mL"}, {"measurement": "Compound 1 Whole Blood Conc.", "setting": "300 mg/kg RE-024-02 by PO, 0.033 hr, LLOQ 1.6 nM, 300 mg/kg", "result": "22.9 nM and 186.2 nM and 138.7 nM and 18.9 nM"}, {"measurement": "Compound 1 Whole Blood Conc.", "setting": "300 mg/kg RE-024-02 by PO, 0.083 hr, LLOQ 0.6 ng/mL, 300 mg/kg", "result": "1.6 ng/mL and BQL and 16.9 ng/mL"}, {"measurement": "Compound 1 Whole Blood Conc.", "setting": "300 mg/kg RE-024-02 by PO, 0.083 hr, LLOQ 1.6 nM, 300 mg/kg", "result": "4.2 nM and BQL and 44.3 nM"}, {"measurement": "Compound 1 Whole Blood Conc.", "setting": "300 mg/kg RE-024-02 by PO, 0.167 hr, LLOQ 0.6 ng/mL, 300 mg/kg", "result": "21.9 ng/mL and 24.1 ng/mL and 53.3 ng/mL and 17.7 ng/mL"}, {"measurement": "Compound 1 Whole Blood Conc.", "setting": "300 mg/kg RE-024-02 by PO, 0.167 hr, LLOQ 1.6 nM, 300 mg/kg", "result": "57.6 nM and 63.3 nM and 140.1 nM and 46.5 nM"}, {"measurement": "Compound 1 Whole Blood Conc.", "setting": "300 mg/kg RE-024-02 by PO, 0.333 hr, LLOQ 0.6 ng/mL, 300 mg/kg", "result": "2.4 ng/mL and 4.3 ng/mL and 3.8 ng/mL and 1.5 ng/mL"}, {"measurement": "Compound 1 Whole Blood Conc.", "setting": "300 mg/kg RE-024-02 by PO, 0.333 hr, LLOQ 1.6 nM, 300 mg/kg", "result": "6.2 nM and 11.3 nM and 10 nM and 3.9 nM"}, {"measurement": "Compound 1 Whole Blood Conc.", "setting": "300 mg/kg RE-024-02 by PO, 0.5 hr, LLOQ 0.6 ng/mL, 300 mg/kg", "result": "4.4 ng/mL and 4.5 ng/mL and 2.8 ng/mL"}, {"measurement": "Compound 1 Whole Blood Conc.", "setting": "300 mg/kg RE-024-02 by PO, 0.5 hr, LLOQ 1.6 nM, 300 mg/kg", "result": "11.5 nM and 11.9 nM and 7.4 nM"}, {"measurement": "Compound 1 Whole Blood Conc.", "setting": "300 mg/kg RE-024-02 by PO, 1 hr, LLOQ 0.6 ng/mL, 300 mg/kg", "result": "BQL"}, {"measurement": "Compound 1 Whole Blood Conc.", "setting": "300 mg/kg RE-024-02 by PO, 1 hr, LLOQ 1.6 nM, 300 mg/kg", "result": "BQL"}, {"measurement": "Compound 1 Whole Blood Conc.", "setting": "300 mg/kg RE-024-02 by PO, 2 hr, LLOQ 0.6 ng/mL", "result": "BQL"}, {"measurement": "Compound 1 Whole Blood Conc.", "setting": "300 mg/kg RE-024-02 by PO, 2 hr, LLOQ 1.6 nM", "result": "BQL"}, {"measurement": "Compound 1 Whole Blood Conc.", "setting": "300 mg/kg RE-024-02 by PO, 4 hr, LLOQ 0.6 ng/mL", "result": "BQL"}, {"measurement": "Compound 1 Whole Blood Conc.", "setting": "300 mg/kg RE-024-02 by PO, 4 hr, LLOQ 1.6 nM", "result": "BQL"}, {"measurement": "Compound 1 Whole Blood Conc.", "setting": "300 mg/kg RE-024-02 by PO, 8 hr, LLOQ 0.6 ng/mL", "result": "BQL"}, {"measurement": "Compound 1 Whole Blood Conc.", "setting": "300 mg/kg RE-024-02 by PO, 8 hr, LLOQ 1.6 nM", "result": "BQL"}, {"measurement": "Compound 1 Whole Blood Conc.", "setting": "700 mg/kg RE-024-02 by PO, 0.033 hr, LLOQ 0.6 ng/mL, 700 mg/kg", "result": "22.6 ng/mL and 66.6 ng/mL and 198 ng/mL and 119.4 ng/mL"}, {"measurement": "Compound 1 Whole Blood Conc.", "setting": "700 mg/kg RE-024-02 by PO, 0.033 hr, LLOQ 1.6 nM, 700 mg/kg", "result": "59.3 nM and 175.1 nM and 520.6 nM and 313.9 nM"}, {"measurement": "Compound 1 Whole Blood Conc.", "setting": "700 mg/kg RE-024-02 by PO, 0.083 hr, LLOQ 0.6 ng/mL, 700 mg/kg", "result": "165 ng/mL and 2.2 ng/mL and 624 ng/mL and 75 ng/mL"}, {"measurement": "Compound 1 Whole Blood Conc.", "setting": "700 mg/kg RE-024-02 by PO, 0.083 hr, LLOQ 1.6 nM, 700 mg/kg", "result": "433.8 nM and 5.9 nM and 1640.7 nM and 197.2 nM"}, {"measurement": "Compound 1 Whole Blood Conc.", "setting": "700 mg/kg RE-024-02 by PO, 0.167 hr, LLOQ 0.6 ng/mL, 700 mg/kg", "result": "636 ng/mL and 235.8 ng/mL and 165 ng/mL and 720 ng/mL"}, {"measurement": "Compound 1 Whole Blood Conc.", "setting": "700 mg/kg RE-024-02 by PO, 0.167 hr, LLOQ 1.6 nM, 700 mg/kg", "result": "1672.2 nM and 620 nM and 433.8 nM and 1893.1 nM"}, {"measurement": "Compound 1 Whole Blood Conc.", "setting": "700 mg/kg RE-024-02 by PO, 0.333 hr, LLOQ 0.6 ng/mL, 700 mg/kg", "result": 63.6, "unit": "ng/mL"}, {"measurement": "Compound 1 Whole Blood Conc.", "setting": "700 mg/kg RE-024-02 by PO, 0.333 hr, LLOQ 1.6 nM, 700 mg/kg", "result": 167.2, "unit": "nM"}, {"measurement": "Compound 1 Whole Blood Conc.", "setting": "700 mg/kg RE-024-02 by PO, 0.5 hr, LLOQ 0.6 ng/mL, 700 mg/kg", "result": "12 ng/mL and 41.6 ng/mL and 9.4 ng/mL and 22.9 ng/mL"}, {"measurement": "Compound 1 Whole Blood Conc.", "setting": "700 mg/kg RE-024-02 by PO, 0.5 hr, LLOQ 1.6 nM, 700 mg/kg", "result": "31.6 nM and 109.3 nM and 24.8 nM and 60.1 nM"}, {"measurement": "Compound 1 Whole Blood Conc.", "setting": "700 mg/kg RE-024-02 by PO, 1 hr, LLOQ 0.6 ng/mL, 700 mg/kg", "result": "48.8 ng/mL and 16 ng/mL and 6.1 ng/mL and 8.8 ng/mL"}, {"measurement": "Compound 1 Whole Blood Conc.", "setting": "700 mg/kg RE-024-02 by PO, 1 hr, LLOQ 1.6 nM, 700 mg/kg", "result": "128.4 nM and 42.1 nM and 15.9 nM and 23.2 nM"}, {"measurement": "Compound 1 Whole Blood Conc.", "setting": "700 mg/kg RE-024-02 by PO, 2 hr, LLOQ 0.6 ng/mL, 700 mg/kg", "result": "5.5 ng/mL and 4 ng/mL and 5.6 ng/mL and 10.2 ng/mL"}, {"measurement": "Compound 1 Whole Blood Conc.", "setting": "700 mg/kg RE-024-02 by PO, 2 hr, LLOQ 1.6 nM, 700 mg/kg", "result": "14.6 nM and 10.4 nM and 14.8 nM and 26.8 nM"}, {"measurement": "Compound 1 Whole Blood Conc.", "setting": "700 mg/kg RE-024-02 by PO, 4 hr, LLOQ 0.6 ng/mL, 700 mg/kg", "result": "BQL"}, {"measurement": "Compound 1 Whole Blood Conc.", "setting": "700 mg/kg RE-024-02 by PO, 4 hr, LLOQ 1.6 nM, 700 mg/kg", "result": "BQL"}, {"measurement": "Compound 1 Whole Blood Conc.", "setting": "700 mg/kg RE-024-02 by PO, 8 hr, LLOQ 0.6 ng/mL", "result": "BQL"}, {"measurement": "Compound 1 Whole Blood Conc.", "setting": "700 mg/kg RE-024-02 by PO, 8 hr, LLOQ 1.6 nM", "result": "BQL"}, {"measurement": "concentration at 0.083 hr", "setting": "100 mg/kg, 100 mg/kg RE-024-02 by PO, 0.083 hr, LLOQ 0.6 ng/mL", "result": 1.4, "unit": "ng/mL"}, {"measurement": "concentration at 0.083 hr", "setting": "100 mg/kg, 100 mg/kg RE-024-02 by PO, 0.083 hr, LLOQ 1.6 nM", "result": 3.8, "unit": "nM"}, {"measurement": "concentration at 0.333 h", "setting": "100 mg/kg, 100 mg/kg RE-024-02 by PO, 0.333 hr, LLOQ 0.6 ng/mL", "result": 0.8, "unit": "ng/mL"}, {"measurement": "concentration at 0.333 h", "setting": "100 mg/kg, 100 mg/kg RE-024-02 by PO, 0.333 hr, LLOQ 1.6 nM", "result": 2, "unit": "nM"}, {"measurement": "concentration at 0.5 h", "setting": "300 mg/kg, 300 mg/kg RE-024-02 by PO, 0.5 hr, LLOQ 0.6 ng/mL", "result": 5, "unit": "ng/mL"}, {"measurement": "concentration at 0.5 h", "setting": "300 mg/kg, 300 mg/kg RE-024-02 by PO, 0.5 hr, LLOQ 1.6 nM", "result": 13.1, "unit": "nM"}, {"measurement": "concentration at 1 h", "setting": "300 mg/kg, 300 mg/kg RE-024-02 by PO, 1 hr, LLOQ 0.6 ng/mL", "result": 0.8, "unit": "ng/mL"}, {"measurement": "concentration at 1 h", "setting": "300 mg/kg, 300 mg/kg RE-024-02 by PO, 1 hr, LLOQ 1.6 nM", "result": 2.1, "unit": "nM"}, {"measurement": "concentration at 0.333 h", "setting": "700 mg/kg, 700 mg/kg RE-024-02 by PO, 0.333 hr, LLOQ 0.6 ng/mL", "result": 109, "unit": "ng/mL"}, {"measurement": "concentration at 0.333 h", "setting": "700 mg/kg, 700 mg/kg RE-024-02 by PO, 0.333 hr, LLOQ 1.6 nM", "result": 286, "unit": "nM"}, {"measurement": "concentration at 4 h", "setting": "700 mg/kg, 700 mg/kg RE-024-02 by PO, 4 hr, LLOQ 0.6 ng/mL", "result": 0.8, "unit": "ng/mL"}, {"measurement": "concentration at 4 h", "setting": "700 mg/kg, 700 mg/kg RE-024-02 by PO, 4 hr, LLOQ 1.6 nM", "result": 2.1, "unit": "nM"}]}]}
